Earlier results on 2 molecules are cited in publication PMC7520961, “Safety evaluation of the interchangeable use of robenacoxib in commercially-available tablets and solution for injection in cats” (BMC Veterinary Research, 2020).

The subject of one data set is anesthetized cats. The following applies: cited from earlier work.
In another data set the test system is humans. The following applies: in vivo; cited from earlier work.

In the case of `CCC[S+]([O-])CCCN(CC)CC(O)COc1ccc(C#N)cc1` (stereo not shown) [almokalant], in the data set with anesthetized cats (almokalant infusion), the QT interval maximum is 349 ± 8.0 ms and the “lengthening of the QT interval” value was “approximately 45%”. Besides, in the data set on anesthetized cats (before almokalant effect), the “QT interval before lengthening” value was 241 ± 6.0 ms.
For `CS(=O)(=O)c1ccc(C2=C(c3ccccc3)C(=O)OC2)cc1` [rofecoxib], the adverse oral reaction entry with humans was “Oral ulceration”.
